The text below walks through data of PMC4682037, “Signal transduction in light–oxygen–voltage receptors lacking the adduct-forming cysteine residue” (Nature Communications, 2015).

Series [1] has as its target T1, BAT-LOV* (Halorubrum hochstenium, UniProt M0FIW0).
T1 construct: gene C467_03291; isolated LOV* domain, residues 141-275, synthetic gene, N-terminal His6 tag (pET28a), E. coli BL21(DE3), endogenous flavin removed by Q XL, monomer; full-length protein also has receiver, GAF and HTH modules
Put plainly: reconstitution with excess flavin, absorption spectroscopy, SEC. As to conditions: incubated at least 12 h in 0.5 M NaCl, unbound flavin removed by 10 kDa filter. Type of series: binding.

Series [2] addresses T2, BAT-LOV* (Halorubrum hochstenium, UniProt M0FIW0, Y163F/W172F/Y247F).
T2 construct: gene C467_03291; isolated LOV* domain, residues 141-275, synthetic gene, N-terminal His6 tag (pET28a), E. coli BL21(DE3), endogenous flavin removed by Q XL, monomer; full-length protein also has receiver, GAF and HTH modules
Put plainly: FAD reconstitution, photoreduction by absorption spectroscopy, SEC. Type of series: binding. As to conditions: BAT-III; 448-nm laser.

For series [3], the target named is T3, VVD-III (VVD Δ36, C108A:M135I:M165I) (Neurospora crassa, UniProt Q9C3Y6, Y40E/C108A/M135I/M165I).
T3 construct: lacks the first 36 residues, C108A/M135I/M165I, pET28a, Ni:NTA purified from E. coli BL21(DE3)
Put plainly: photoreduction, SEC. Format: binding. As to conditions: flavin bound on purification; 448-nm laser 30 mW, 50 mM Hepes pH 8, 150 mM NaCl.

The target in series [4] is T4, BAT-LOV* (Halorubrum hochstenium, UniProt M0FIW0, P188C).
T4 construct: gene C467_03291; isolated LOV* domain, residues 141-275, synthetic gene, N-terminal His6 tag (pET28a), E. coli BL21(DE3), endogenous flavin removed by Q XL, monomer; full-length protein also has receiver, GAF and HTH modules
Briefly: photoreduction by absorption spectroscopy. As to conditions: 448-nm laser; flavin presumably FAD as for the wild type. Format: binding.

Series [5] concerns the target T5, VVD-III (VVD Δ36, C108A:M135I:M165I) (Neurospora crassa, UniProt Q9C3Y6, C108A/M135I/M165I/Q182L).
T5 construct: lacks the first 36 residues, C108A/M135I/M165I, pET28a, Ni:NTA purified from E. coli BL21(DE3)
Put plainly: photoreduction, SEC. Format: binding. As to conditions: flavin bound on purification; 448-nm laser 30 mW, 50 mM Hepes pH 8, 150 mM NaCl.

Series [6] has as its target T1, BAT-LOV*. Put plainly: reconstitution with excess flavin, absorption spectroscopy. Format: binding. Conditions: incubated at least 12 h in 0.5 M NaCl, unbound flavin removed by 10 kDa filter.
Series [7] deals with the molecule itself. Briefly: SEC; VVD-III as purified from E. coli passed through a SEC column; flavin redox states separate; blue-coloured, NSQ-containing protein. A general note: SEC sorts molecules by how far they enter the pores of the column.

T1 sequence (M0FIW0 entry or part of it): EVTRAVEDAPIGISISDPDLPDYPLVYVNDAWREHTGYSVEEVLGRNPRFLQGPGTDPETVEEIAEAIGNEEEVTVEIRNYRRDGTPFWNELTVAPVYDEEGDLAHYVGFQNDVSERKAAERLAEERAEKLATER
T5 sequence (Q9C3Y6 entry or part of it C108A/M135I/M165I/Q182L): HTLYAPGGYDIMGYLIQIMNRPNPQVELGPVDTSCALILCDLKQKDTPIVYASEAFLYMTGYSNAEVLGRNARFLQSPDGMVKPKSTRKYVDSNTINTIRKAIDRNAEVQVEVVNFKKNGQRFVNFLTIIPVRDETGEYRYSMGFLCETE
T4 sequence (M0FIW0 entry or part of it P188C): as the sequence (M0FIW0 entry or part of it) above, with P48C counted along it
T3 sequence (Q9C3Y6 entry or part of it Y40E/C108A/M135I/M165I): as the sequence (Q9C3Y6 entry or part of it C108A/M135I/M165I/Q182L) above, with Y4E, L146Q counted along it
T2 sequence (M0FIW0 entry or part of it Y163F/W172F/Y247F): as the sequence (M0FIW0 entry or part of it) above, with Y23F, W32F, Y107F counted along it

Take `Cc1cc2nc3c(=O)[nH]c(=O)nc-3n(C[C@H](O)[C@H](O)[C@H](O)COP(=O)(O)O)c2cc1C` [FMN]: the “reconstitution with excess flavin, absorption spectroscopy, SEC” value on BAT-LOV* [1] was “could be reconstituted with either FAD, FMN or riboflavin after incubation with excess cofactor”.

For `Cc1cc2nc3c(=O)[nH]c(=O)nc-3n(C[C@H](O)[C@H](O)[C@H](O)COP(=O)(O)OP(=O)(O)OC[C@H]3O[C@@H](n4cnc5c(N)ncnc54)[C@H](O)[C@@H]3O)c2cc1C` [FAD], the “FAD reconstitution, photoreduction by absorption spectroscopy, SEC” value at BAT-LOV* [2] was “recombinantly expressed, FAD-reconstituted (a) BAT-LOV* and (b) BAT-III (Y163F:W172F:Y247F)”. Besides, the “photoreduction, SEC” value was “both the light-adapted NSQ and dark-adapted oxidized quinone states elute from SEC as monomers” in series [3]; “Substituting the conserved Gln182 that interacts with flavin N5 to Leu” in series [5]. For the same molecule, the “photoreduction by absorption spectroscopy” value on BAT-LOV* [4] is “BAT P188C photoreduces to the HQ with little NSQ intermediate”. The “reconstitution with excess flavin, absorption spectroscopy, SEC” value at BAT-LOV* [1] (flavin-free protein elutes in extended conformation) is “could be reconstituted with either FAD, FMN or riboflavin after incubation with excess cofactor”.

Turning to `Cc1cc2nc3c(=O)[nH]c(=O)nc-3n(C[C@H](O)[C@H](O)[C@H](O)CO)c2cc1C` [riboflavin], the “reconstitution with excess flavin, absorption spectroscopy” value on BAT-LOV* [6] is recorded as “could be reconstituted with either FAD, FMN or riboflavin after incubation with excess cofactor”.

B1: VVD-III (VVD Δ36, C108A:M135I:M165I) (domain or fragment, Neurospora, UniProt Q9C3Y6 37-186, looked up)
chain: HTLYAPGGYDIMGYLIQIMNRPNPQVELGPVDTSCALILCDLKQKDTPIVYASEAFLYMTGYSNAEVLGRNARFLQSPDGMVKPKSTRKYVDSNTINTIRKAIDRNAEVQVEVVNFKKNGQRFVNFLTIIPVRDETGEYRYSMGFQCETE
notes: Vivid (VVD), LOV photoreceptor of Neurospora; lacks the first 36 N-terminal residues; C108A, M135I, M165I; Dark-adapted: oxidized quinone; light-adapted: neutral semiquinone (NSQ); also called Vivid; source: E. coli BL21(DE3), purified (Ni:NTA, SEC)
As usually defined, the stoichiometry N is a count of units in the complex or per binding partner. For B1, in series [7], the “stoichiometry N” value is 2.
